From patent US11970463B2, “Compounds and their use” (ASTRAZENECA AB, priority 2021, dated 2024) come the findings set out here.

A short description of data set [1]: Solubility (Test E). The class given is physicochemical.
Data set [2] addresses T1, Human NLRP3 (Homo sapiens (Human), UniProt Q96P20).
Data set [3] is described as follows: Solubility (Test F), McIlvaine buffer pH 6.5. The class given is physicochemical. As to conditions: McIlvaine buffer pH 6.5, 25° C., 24 to 72 h, theoretical maximum 200 μM; for solubility: disodium hydrogenphosphate-citric acid (McIlvaine) buffer, 25 °C, pH 6.5, aqueous buffer, thermodynamic from solid.
The target in data set [4] is T1, Human NLRP3. The data set can be described thus: Human NLRP3 speck formation assay (Test A), nigericin triggered ASC-speck formation in ASC-GFP reporter monocytes.
Data set [5] has as its target T1, Human NLRP3. The source holds these as a separate data set.
Data set [6] concerns the target hERG (Homo sapiens (Human), UniProt Q12809). The data set can be described thus: hERG assay (Test D), SyncroPatch 384PE patch clamp, hERG-expressing CHO cells. It is filed as cell-based. As to conditions: rt. Background: hERG is a cardiac potassium channel; its block is linked to QT prolongation.
The mark [7] stands for this setting: Test C IC50, IL-1β release, THP-1 cells, LPS 2 μg/mL 24 h, BzATP 1 mM.

In brackets after ≈: the same amount, converted by molar mass. Like-named read-outs stand apart in the source and are kept apart here.

T1 sequence (Q96P20 whole entry): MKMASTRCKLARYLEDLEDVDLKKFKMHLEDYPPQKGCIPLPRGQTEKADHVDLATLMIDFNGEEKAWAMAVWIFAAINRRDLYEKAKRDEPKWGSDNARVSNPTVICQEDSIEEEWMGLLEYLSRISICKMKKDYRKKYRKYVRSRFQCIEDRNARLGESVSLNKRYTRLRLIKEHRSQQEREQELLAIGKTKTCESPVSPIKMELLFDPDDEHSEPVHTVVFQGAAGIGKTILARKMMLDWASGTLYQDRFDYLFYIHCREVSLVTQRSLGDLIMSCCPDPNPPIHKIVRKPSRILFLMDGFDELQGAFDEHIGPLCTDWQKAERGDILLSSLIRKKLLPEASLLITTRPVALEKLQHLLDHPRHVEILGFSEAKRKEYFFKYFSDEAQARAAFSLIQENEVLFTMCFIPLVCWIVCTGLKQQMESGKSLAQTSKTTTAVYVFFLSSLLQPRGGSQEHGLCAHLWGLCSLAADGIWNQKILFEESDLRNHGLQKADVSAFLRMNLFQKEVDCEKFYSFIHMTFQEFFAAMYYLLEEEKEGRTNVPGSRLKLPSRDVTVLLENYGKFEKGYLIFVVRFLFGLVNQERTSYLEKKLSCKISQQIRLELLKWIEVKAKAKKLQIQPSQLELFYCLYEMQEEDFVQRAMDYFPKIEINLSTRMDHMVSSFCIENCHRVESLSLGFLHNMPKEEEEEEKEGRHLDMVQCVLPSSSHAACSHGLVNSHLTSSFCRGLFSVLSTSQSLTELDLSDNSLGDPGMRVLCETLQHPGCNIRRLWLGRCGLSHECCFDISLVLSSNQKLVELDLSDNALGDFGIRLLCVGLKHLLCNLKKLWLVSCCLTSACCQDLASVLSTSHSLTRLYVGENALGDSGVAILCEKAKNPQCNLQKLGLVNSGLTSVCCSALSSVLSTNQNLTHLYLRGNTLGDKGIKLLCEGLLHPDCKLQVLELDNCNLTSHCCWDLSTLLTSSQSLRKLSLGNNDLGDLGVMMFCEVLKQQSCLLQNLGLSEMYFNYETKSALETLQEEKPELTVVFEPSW
Sequence of hERG (Q12809 whole entry): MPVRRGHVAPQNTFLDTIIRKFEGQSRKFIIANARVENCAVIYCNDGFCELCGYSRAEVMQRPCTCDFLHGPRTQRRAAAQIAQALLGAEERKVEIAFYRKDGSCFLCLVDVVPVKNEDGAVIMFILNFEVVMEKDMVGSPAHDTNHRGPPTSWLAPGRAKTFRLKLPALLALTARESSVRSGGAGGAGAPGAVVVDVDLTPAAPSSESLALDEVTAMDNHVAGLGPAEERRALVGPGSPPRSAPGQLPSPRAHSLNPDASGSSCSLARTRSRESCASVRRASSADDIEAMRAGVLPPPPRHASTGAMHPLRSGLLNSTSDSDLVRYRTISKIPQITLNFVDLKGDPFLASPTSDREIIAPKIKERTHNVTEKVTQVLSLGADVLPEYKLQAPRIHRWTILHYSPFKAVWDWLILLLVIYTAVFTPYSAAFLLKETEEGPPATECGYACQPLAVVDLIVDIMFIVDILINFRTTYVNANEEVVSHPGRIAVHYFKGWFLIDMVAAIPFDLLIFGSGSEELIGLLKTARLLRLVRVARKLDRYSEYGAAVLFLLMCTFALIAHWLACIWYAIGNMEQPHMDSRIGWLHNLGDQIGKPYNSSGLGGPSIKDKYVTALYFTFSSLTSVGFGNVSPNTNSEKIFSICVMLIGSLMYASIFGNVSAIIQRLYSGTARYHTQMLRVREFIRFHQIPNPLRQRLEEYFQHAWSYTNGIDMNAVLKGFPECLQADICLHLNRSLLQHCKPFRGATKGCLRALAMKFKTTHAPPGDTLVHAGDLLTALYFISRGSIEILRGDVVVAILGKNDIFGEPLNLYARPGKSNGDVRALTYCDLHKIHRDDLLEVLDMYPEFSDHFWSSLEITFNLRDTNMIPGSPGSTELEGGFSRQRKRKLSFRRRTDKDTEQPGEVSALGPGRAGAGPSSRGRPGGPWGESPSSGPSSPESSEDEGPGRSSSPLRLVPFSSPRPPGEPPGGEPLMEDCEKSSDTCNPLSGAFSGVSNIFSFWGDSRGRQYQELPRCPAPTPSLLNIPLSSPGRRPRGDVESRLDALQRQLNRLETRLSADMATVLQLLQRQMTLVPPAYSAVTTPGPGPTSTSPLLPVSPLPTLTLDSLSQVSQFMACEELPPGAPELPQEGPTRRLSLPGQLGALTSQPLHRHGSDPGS

By solubility is commonly meant the concentration that dissolves in the medium under given conditions. The low end stands for a poorly soluble substance, the high end for a readily soluble substance. What is called IC50 is the point on the concentration scale where inhibition reaches its midpoint. High values mean weaker potency in that assay, low ones greater potency in that assay. The term EC50 denotes the concentration giving half of the maximal effect. With `Oc1cc(C(F)(F)F)ccc1-c1nnc(N[C@@H]2CCCCC[C@H]2O)c2ccccc12` (racemic) [Example 27, rac-(1R,2R)-2-[[4-[2-hydroxy-4-(trifluoromethyl)phenyl]phthalazin-1-yl]amino]cycloheptanol], the results for the solubility in data set [1] and in data set [3] were 9 µM (≈ 3.76 µg/mL) and 2.1 µg/mL (≈ 5.03 µM), respectively. In data set [2] (setting [7]), this molecule displayed an IC50 of 34 nM. In data set [4], this molecule displayed a concentration for a half-maximal effect (EC50) of 562 nM.

Consider `Oc1cc(C(F)(F)F)ccc1-c1nnc(N[C@H]2CC[C@@H](O)C2)c2ccccc12` (single isomer, unassigned) [Example 35], for which the figures for the IC50 in data set [5] and in data set [2] (setting [7]) were 71 nM and 69 nM, respectively. For the same molecule, the “Test F Solubility” value in data set [3] was determined as 10.9 µg/mL. In data set [4], this molecule had a 50% effective concentration (EC50) of 212 nM.

For `OC[C@@H](O)CNc1nnc(-c2ccc(Cl)cc2O)c2ccccc12` [Example 5, (2S)-3-[[4-(4-chloro-2-hydroxy-phenyl)phthalazin-1-yl]amino]propane-1,2-diol], the IC50 was 45 nM in data set [5] and 17 nM in data set [2] (setting [7]). Further, the solubility in data set [1] came to 6 µM (≈ 2.07 µg/mL); in data set [3], 7.9 µg/mL (≈ 22.8 µM). This molecule also came in with an EC50 in data set [4] of 122 nM.

On to `OC[C@@H](O)CNc1nnc(-c2ccc(OC(F)(F)F)cc2O)c2ccccc12` [Example 6, (2S)-3-[[4-[2-hydroxy-4-(trifluoromethoxy)phenyl]phthalazin-1-yl]amino]propane-1,2-diol], for which the IC50 in data set [5] was 99 nM; in data set [2] (setting [7]), 40 nM. The solubility in data set [1] was 130 µM (≈ 51.4 µg/mL); in data set [3], more than 79.1 µg/mL. In addition, it took 201 nM to reach a half-maximal effect in data set [4] (EC50).

As for `Cc1ccc(-c2nnc(NC[C@H](O)CO)c3ccccc23)c(O)c1` [Example 11, (2S)-3-[[4-(2-hydroxy-4-methyl-phenyl)phthalazin-1-yl]amino]propane-1,2-diol], the 50% inhibitory concentration (IC50) in data set [5] amounted to 82 nM; in data set [2] (setting [7]), 23 nM. For the same molecule, the figures for the solubility in data set [1] and in data set [3] were more than 1000 µM and more than 65.1 µg/mL, respectively. For the same molecule, the concentration for a half-maximal effect (EC50) in data set [4] worked out at 207 nM.

With `Cc1ccc2c(NC[C@H](O)CO)nnc(-c3ccc(C(F)(F)F)cc3O)c2c1` [Example 15, (2S)-3-[[4-[2-hydroxy-4-(trifluoromethyl)phenyl]-6-methyl-phthalazin-1-yl]amino]propane-1,2-diol], the solubility in data set [1] was found to be 155 µM (≈ 61 µg/mL); in data set [3] it was 14.7 µg/mL (≈ 37.4 µM). Moreover, inhibition in data set [2] (setting [7]) was half-maximal at 26 nM (IC50). The molecule further gave an EC50 in data set [4] of 220 nM.

Turning to `Oc1cc(C(F)(F)F)ccc1-c1nnc(N[C@H]2CC[C@H](O)C2)c2ccccc12` [Example 17, 2-[4-[[(1S,3S)-3-hydroxycyclopentyl]amino]phthalazin-1-yl]-5-(trifluoromethyl)phenol], the IC50 came to 169 nM in data set [5] and 86 nM in data set [2] (setting [7]). Also, the solubility in data set [3] was found to be 27.5 µg/mL (≈ 70.6 µM). In addition, the half-maximal effective concentration (EC50) in data set [4] was 290 nM.

For the molecule `Oc1cc(C(F)(F)F)ccc1-c1nnc(N[C@@H]2CCC[C@H]2O)c2ccccc12` [Example 20, 2-[4-[[(1R,2R)-2-hydroxycyclopentyl]amino]phthalazin-1-yl]-5-(trifluoromethyl)phenol], the IC50 was 46 nM in data set [5] and 10 nM in data set [2] (setting [7]). In addition, the solubility in data set [1] was 206 µM (≈ 80.2 µg/mL); in data set [3], 8.6 µg/mL (≈ 22.1 µM). The 50% effective concentration (EC50) in data set [4] was determined as 162 nM.

Turning to `Oc1cc(C(F)(F)F)ccc1-c1nnc(N[C@H]2CCC[C@@H]2O)c2ccccc12` [Example 22, 2-[4-[[(1S,2S)-2-hydroxycyclopentyl]amino]phthalazin-1-yl]-5-(trifluoromethyl)phenol], the results for the solubility in data set [1] and in data set [3] were 172 µM (≈ 67 µg/mL) and 9.2 µg/mL (≈ 23.6 µM), respectively. The molecule further showed a half-inhibitory concentration (IC50) in data set [2] (setting [7]) of 187 nM. In data set [4], this molecule registered an EC50 of 2410 nM.

Turning to `Oc1cc(C(F)(F)F)ccc1-c1nnc(N[C@H]2CCCC[C@@H]2O)c2ccccc12` [Example 26, 2-[4-[[(1S,2S)-2-hydroxycyclohexyl]amino]phthalazin-1-yl]-5-(trifluoromethyl)phenol], the solubility was 148 µM (≈ 59.7 µg/mL) in data set [1] and 8.3 µg/mL (≈ 20.6 µM) in data set [3]. The half-inhibitory concentration (IC50) in data set [2] (setting [7]) was 602 nM. Also, in data set [4], the EC50 was found to be 1980 nM.

Consider `Oc1cc(C(F)(F)F)ccc1-c1nnc(N[C@H]2C[C@H](O)C2)c2ccccc12` [Example 32, 2-(4-(((1r,3r)-3-hydroxycyclobutyl)amino)phthalazin-1-yl)-5-(trifluoromethyl)phenol], for which the results for the IC50 in data set [5] and in data set [2] (setting [7]) were 141 nM and 63 nM, respectively. Moreover, the solubility in data set [3] amounted to 1.4 µg/mL (≈ 3.73 µM). This molecule also yielded a concentration giving a half-maximal response (EC50) in data set [4] of 248 nM.

As for `Oc1cc(C(F)(F)F)ccc1-c1nnc(N[C@H]2C[C@@H](O)C2)c2ccccc12` [Example 33, 2-(4-(((1s,3s)-3-hydroxycyclobutyl)amino)phthalazin-1-yl)-5-(trifluoromethyl)phenol], the half-maximal inhibitory concentration (IC50) in data set [5] is 122 nM; in data set [2] (setting [7]), 46 nM. The same molecule had a solubility in data set [3] of 2.6 µg/mL (≈ 6.93 µM). The same molecule registered a half-maximal effective concentration (EC50) in data set [4] of 206 nM.

Take `C[C@]1(O)C[C@@H](Nc2nnc(-c3ccc(C(F)(F)F)cc3O)c3ccccc23)C1` [Example 37, 2-(4-(((1s,3s)-3-hydroxy-3-methylcyclobutyl)amino)phthalazin-1-yl)-5-(trifluoromethyl)phenol]: the IC50 in data set [6] was 29000 nM; in data set [5], 32 nM. This molecule also came in with a concentration for a half-maximal effect (EC50) in data set [4] of 339 nM.

For `Oc1cc(Cl)ccc1-c1nnc(N[C@@H]2CCC[C@H](O)C2)c2cnccc12` [Example 44, 5-chloro-2-[4-[[(1R,3S)-3-hydroxycyclohexyl]amino]pyrido[3,4-d]pyridazin-1-yl]phenol], the IC50 was more than 40000 nM in data set [6] and less than 3 nM in data set [2] (setting [7]). The solubility in data set [1] is 636 µM (≈ 236 µg/mL); in data set [3] it was 40.1 µg/mL (≈ 108 µM). Besides, the concentration for a half-maximal effect (EC50) in data set [4] amounted to 16 nM.

Take `Oc1cc(C2CC2)ccc1-c1nnc(N[C@@H]2CCC[C@H](O)C2)c2cnccc12` [Example 52, 5-cyclopropyl-2-[4-[[(1R,3S)-3-hydroxycyclohexyl]amino]pyrido[3,4-d]pyridazin-1-yl]phenol]: the 50% inhibitory concentration (IC50) in data set [6] came to 22000 nM; in data set [2] (setting [7]), 6 nM. The solubility in data set [1] was found to be 447 µM (≈ 168 µg/mL); in data set [3], 51.9 µg/mL (≈ 138 µM). Also, the concentration giving a half-maximal response (EC50) in data set [4] was found to be 52 nM.

`Oc1cc(Cl)ccc1-c1nnc(N[C@@H]2CCCC[C@H]2O)c2cnccc12` [Example 58, 5-chloro-2-[4-[[(1R,2R)-2-hydroxycyclohexyl]amino]pyrido[3,4-d]pyridazin-1-yl]phenol]: the IC50 in data set [6] was more than 40000 nM; in data set [2] (setting [7]), 2 nM. Moreover, in data set [3], the solubility worked out at 42.4 µg/mL (≈ 114 µM). In data set [4], a half-maximal effect (EC50) was put at 11 nM.

For the molecule `C[C@]1(O)C[C@@H](Nc2nnc(-c3ccc(Cl)c(F)c3O)c3ccncc23)C1` [Example 65, 3-chloro-2-fluoro-6-(4-(((1s,3s)-3-hydroxy-3-methylcyclobutyl)amino)pyrido[3,4-d]pyridazin-1-yl)phenol], the IC50 came out at 114 nM in data set [5] and 37 nM in data set [2]. Moreover, the solubility in data set [1] was found to be 11 µM (≈ 4.12 µg/mL); in data set [3], 1.1 µg/mL (≈ 2.93 µM). Besides, a half-maximal effect in data set [4] (EC50) was put at 373 nM.

In the case of `C[C@]1(O)C[C@@H](Nc2nnc(-c3c(O)cc(C(F)(F)F)cc3F)c3ccncc23)C1` [Example 67, 3-fluoro-2-(4-(((1s,3s)-3-hydroxy-3-methylcyclobutyl)amino)pyrido[3,4-d]pyridazin-1-yl)-5-(trifluoromethyl)phenol], the IC50 in data set [5] was found to be 24 nM; in data set [2], 8 nM. In addition, the values for the solubility in data set [1] and in data set [3] were 3 µM (≈ 1.23 µg/mL) and 1.5 µg/mL (≈ 3.67 µM), respectively. Also, the concentration giving a half-maximal response (EC50) in data set [4] turned out to be 67 nM.

`C[C@]1(O)C[C@@H](Nc2nnc(-c3ccc(Cl)cc3O)c3ccncc23)C1` [Example 68, 5-chloro-2-(4-(((1s,3s)-3-hydroxy-3-methylcyclobutyl)amino)pyrido[3,4-d]pyridazin-1-yl)phenol]: in data set [1], the solubility turned out to be 44 µM (≈ 15.7 µg/mL). This molecule also registered an IC50 in data set [2] of 2 nM. For the same molecule, the EC50 in data set [4] was 19 nM.

As to `C[C@]1(O)C[C@@H](Nc2nnc(-c3c(O)cc(F)cc3F)c3ccncc23)C1` [Example 69, 3,5-difluoro-2-(4-(((1s,3s)-3-hydroxy-3-methylcyclobutyl)amino)pyrido[3,4-d]pyridazin-1-yl)phenol], the values for the IC50 in data set [5] and in data set [2] were 149 nM and 38 nM, respectively. Moreover, the results for the solubility in data set [1] and in data set [3] were 29 µM (≈ 10.4 µg/mL) and 13.6 µg/mL (≈ 38 µM), respectively. In data set [4], this molecule yielded a 50% effective concentration (EC50) of 301 nM.

On to `CC(C)(O)CNc1nnc(-c2c(O)cc(Cl)cc2F)c2ccncc12` [Example 73, 5-chloro-3-fluoro-2-[4-[(2-hydroxy-2-methyl-propyl)amino]pyrido[3,4-d]pyridazin-1-yl]phenol], for which the IC50 is more than 40000 nM in data set [6] and 15 nM in data set [2] (setting [7]). The molecule also registered a solubility in data set [3] of 14.1 µg/mL (≈ 38.9 µM). Besides, the EC50 in data set [4] was 142 nM.

`Oc1cccc(F)c1-c1nnc(N[C@@H]2CCCC[C@H]2O)c2cnccc12` [Example 76, 3-fluoro-2-(4-(((1R,2R)-2-hydroxycyclohexyl)amino)pyrido[3,4-d]pyridazin-1-yl)phenol] displayed a half-maximal inhibitory concentration (IC50) in data set [6] of more than 40000 nM. Moreover, the EC50 in data set [4] is 128 nM.

For `C[C@]1(O)C[C@H](Nc2nnc(-c3ccc(C(F)(F)F)cc3O)c3ccncc23)C1` [Example 84, 2-(4-(((1r,3r)-3-hydroxy-3-methylcyclobutyl)amino)pyrido[3,4-d]pyridazin-1-yl)-5-(trifluoromethyl)phenol], the solubility was 20 µM (≈ 7.81 µg/mL) in data set [1] and more than 78.1 µg/mL in data set [3]. The molecule further displayed an IC50 in data set [2] (setting [7]) of 27 nM. Moreover, in data set [4], a half-maximal effect (EC50) was put at 88 nM.
